Holding throughout (assay type): cell-based, HIV-1
In experiment [1] the test system is recombinant virus from patient viral RNA (Example 12). Nature of the experiment: Recombinant virus assay (MT4/MTT), patient of Example 12 (therapy history RT and protease inhibitors). As to conditions: for susceptibility of the patient's HIV strain (in words): Example 12 patient, conclusion from Table 8; for IC50: Human immunodeficiency virus 1, Table 8, Example 12 patient virus; for ratio (1)/(2): Table 8, patient mean IC50 / recIIIB IC50, Example 12. As to the method: (§1) RNA was isolated from 100 μl of plasma according to the method described by Boom, R. et al. (1990, supra), and was reverse transcribed with the GeneAmp reverse transcriptase kit (Perkin Elmer) as described by the manufacturer and using an HIV-1 specific downstream primer (OUT3: 5′-CATTGCTCTCCAATTACTGTGATATTTCTCATC-3′; SEQ ID NO: 1). PCR on reverse transcribed RNA was performed with inner and outer primers as described by Kellam, P. and Larder, B. A. (1994, supra). After chloroform extraction and centrifugation on Centricon 100 columns or centrifugation on anion-exchange spin columns (Quiagen), the isolated PCR product was ready for use in the transfection reactions.
(§2) MT4 cells were subcultured at a density of 250,000 cells/ml before transfection (exponential growth phase). Cells were pelleted and resuspended in phosphate buffered saline (PBS) at a concentration of […]. A 0.8 ml portion (2.5 10E6 cells/ml) was used for each transfection. Transfection was performed with the Bio-Rad Gene pulser making use of 0.4 cm electrode cuvettes. Cells were electroporated in the presence of […] of linearised pHIVΔRT plasmid and approximately 5 μg of RT PCR product at 250SF and 300 V, followed by a 30-min incubation at room temperature. Subsequently, 10 ml of fresh culture medium was added to the cell suspension and incubation was performed at 37° C. in a humidified atmosphere of 5% CO2.
(§3) During 7 to 10 days following the transfection, cells were monitored for the appearance of cytopathogenic effect (CPE). In the absence thereof, cells were subcultured in different flasks. Subsequently, culture supernatants of transfected cells were used to create a stock of recombinant virus and stored in 1.5 ml aliquots at −70° C.
(§4) After titration of the new viruses, the stocks were used for antiviral experiments in the presence of serial dilutions of different HIV inhibitors. Titres of the harvested supematants were determined by limited serial dilution titration of virus in MT4 cells.
(§5) Viruses with a useful titre were used in antiviral experiments. For this purpose, 96-well microtitre plates were filled with 100μl of complete culture medium. Subsequently, stock solutions of compounds were added in 25 μl volumes to series of duplicate wells. HIV- and mock-infected cell samples were included for each drug (or drug combination). Exponentially growing MT4 cells were then transferred to the microtitre plates at a density of 150,000 cells/ml. The cell cultures were then incubated at 37° C. in a humidified atmosphere of 5% CO2. Five days after infection, the viability of the mock- and HIV-infected cells was examined spectrophotometrically by the M1T method (Pauwels, R. et al. J. Virol. Meth. (1988), 20: 309-321) as described in Section 6 below.
(§6) To each well of the microtiter plates, 20 μl of a solution of MTT (7.5 mg/ml in PBS) was added. The plates were further incubated at 37° C. for 1 h. Then, 150 μl of medium was removed without disturbing the MT4 cell clusters containing the formazan crystals. Solubilization of the formazan crystals was achieved by adding 100 μl 5% Triton X-100 in acidified isopropanol (5 ml concentrated HCl per liter solvent). Complete dissolution of the formazan crystals was obtained after the plates had been placed on a plate shaker for 10 min. Finally the absorbances were read at two wavelengths (540 and 690 nm). From these optical density (OD) data, 50% inhibitory (IC50) and 50% cytotoxic (CC50) concentrations were derived.
An HIV infected patient with a therapy history including RT and protease inhibitors donated plasma whose susceptibility to a number of RT inhibitors and protease inhibitors was determined according to the protocol set out in Example 1.

Experiment [2] has as its system recombinant virus from patient viral RNA (Example 10, drug-naive patient). Put plainly: Recombinant virus assay (MT4/MTT), drug-naive patient of Example 10. Conditions: for IC50: Human immunodeficiency virus 1, Table 6, Example 10 patient virus; for ratio (1)/(2): Table 6, patient mean IC50 / recIIIB IC50, Example 10. On the procedure:
as §1, §2, §3, §4, §5, §6
A drug-naive HIV-infected patient donated plasma whose susceptibility to a number of RT inhibitors and protease inhibitors was determined according to the protocol set out in Example 1. Recombinant wild type HIV strain recIIIB was used as a reference HIV virus.

Experiment [3] concerns Recombinant wild type HIV strain recIIIB. Nature of the experiment: Antiviral MT4/MTT assay with reference virus recIIIB. Conditions: read-out: Anti-HIV-1 activity IC50 (μM) recIIIB ref (2). On the procedure:
as §4, §5, §6
A general note: Tetrazolium dyes change colour on reduction, which living cells bring about.

The test system of experiment [4] is recombinant virus from patient viral RNA (Example 11). Nature of the experiment: Recombinant virus assay (MT4/MTT), patient of Example 11 (therapy history RT and protease inhibitors). As to conditions: for IC50: Human immunodeficiency virus 1, Table 7, Example 11 patient virus; for ratio (1)/(2): Table 7, patient mean IC50 / recIIIB IC50, Example 11. On the procedure:
as §1, §2, §3, §4, §5, §6
An HIV infected patient with a therapy history including RT and protease inhibitors donated plasma whose susceptibility to a number of RT inhibitors and protease inhibitors was determined according to the protocol set out in Example 1. Recombinant wild type HIV strain recIIIb was used as a reference HIV virus.

The mark [5] stands for this setting: MT4 cells, read-out: Anti-HIV-1 activity IC50 (μM) Exp. 1.
Setting [6] is: MT4 cells, read-out: Anti-HIV-1 activity IC50 (μM) Exp. 2.
Where [7] appears, read: mean, read-out: Anti-HIV-1 activity IC50 (μM) Mean (1).
Where [8] appears, read: Human immunodeficiency virus 1, Table 6, reference run of Example 10.
The mark [9] stands for this setting: Human immunodeficiency virus 1, Table 7, reference run of Example 11.
Where [10] appears, read: Human immunodeficiency virus 1, Table 8, reference run of Example 12.

Read-outs that look alike come from different tables or passages of the source.

As usually defined, the IC50 is the concentration needed to halve the response being measured.

As to `CC(C)(C)NC(=O)[C@@H]1C[C@@H]2CCCC[C@@H]2CN1C[C@@H](O)[C@H](Cc1ccccc1)NC(=O)[C@H](CC(N)=O)NC(=O)c1ccc2ccccc2n1` [saquinavir], the “susceptibility of the patient's HIV strain (in words)” value in experiment [1] was “decreased susceptibility”. The IC50 in experiment [1] (setting [5]) came to 0.35 µM; in experiment [1] (setting [6]), 0.352 µM; in experiment [1] (setting [7]), 0.351 µM; in experiment [2] (setting [5]), 0.003 µM; in experiment [2] (setting [6]) it was 0.003 µM; in experiment [2] (setting [7]), 0.003 µM. The IC50 in experiment [3] (setting [8]) came out at 0.006 µM; in experiment [3] (setting [9]) it was 0.012 µM; in experiment [3] (setting [10]), 0.006 µM; in experiment [4] (setting [5]), 0.014 µM; in experiment [4] (setting [6]) it was 0.015 µM; in experiment [4] (setting [7]), 0.014 µM. The “ratio (1)/(2)” value came out at 56 in experiment [1], 0.4 in experiment [2] and 1 in experiment [4].

Take `CC(C)c1nc(CN(C)C(=O)N[C@H](C(=O)N[C@@H](Cc2ccccc2)C[C@H](O)[C@H](Cc2ccccc2)NC(=O)OCc2cncs2)C(C)C)cs1` [ritonavir]: the “susceptibility of the patient's HIV strain (in words)” value in experiment [1] was “decreased susceptibility”; in experiment [4] (Example 11 patient, conclusion from Table 7) it was “decreased susceptibilty”. Also, the IC50 came out at 1.61 µM in experiment [1] (setting [5]); 1.53 µM in experiment [1] (setting [6]); 1.57 µM in experiment [1] (setting [7]); 0.022 µM in experiment [2] (setting [5]); 0.017 µM in experiment [2] (setting [6]); 0.019 µM in experiment [2] (setting [7]). The IC50 in experiment [3] (setting [8]) is 0.033 µM; in experiment [3] (setting [9]) it was 0.062 µM; in experiment [3] (setting [10]), 0.033 µM; in experiment [4] (setting [5]), 1.2 µM; in experiment [4] (setting [6]) it was 1.74 µM; in experiment [4] (setting [7]), 1.47 µM. The “ratio (1)/(2)” value worked out at 47 in experiment [1], 0.6 in experiment [2] and 24 in experiment [4].

For the origin of these results see US6528251B2, “Method of managing the chemotherapy of patients who are HIV positive based on the phenotypic drug sensitivity of human HIV strains” (Virco N.V., priority 1996, dated 2003).
